ChEMBL document CHEMBL1141916, “Synthesis and anticonvulsant activity of new 2-substituted-5-(2-benzyloxyphenyl)-1,3,4-oxadiazoles” (Bioorg Med Chem Lett, 2005)

Legend:
Mus musculus [1] = species: Mus musculus; experiment: Effective dose against maximal electroshock (MES) induced convulsants in mice; assay type: functional
Mus musculus [2] = species: Mus musculus; experiment: Effective dose against pentylenetetrazole (PTZ) induced anticonvulsant activity in mice; assay type: functional
[3] = Lethal dose tested against mice; assay type: toxicity; details: mouse, in vivo
Mus musculus [4] = experiment: Effective dose against pentylenetetrazole (PTZ) induced anticonvulsant activity in presence of flumazenil at 10 mg/kg in mice; range: 1.5-4.1; assay type: functional
Mus musculus [5] = species: Mus musculus; experiment: animal or person
Mus musculus [6] = species: Mus musculus; experiment: animal or person; remark: listed apart in the source
Description: Effective dose against pentylenetetrazole (PTZ) induced anticonvulsant activity in presence of flumazenil at 10 mg/kg in mice; Range: 1.1-2

Row | SMILES | ED50 (Mus musculus [1]) [mg/kg] | ED50 (Mus musculus [2]) [mg/kg] | LD50 [3] [mg/kg] | ED50 (Mus musculus [4]) [mg/kg] | ED50 (Mus musculus [5]) [mg/kg] | ED50 (Mus musculus [6]) [mg/kg]
1 | CSc1nnc(-c2ccccc2OCc2ccccc2)o1 | > 100 | 91.2 | > 300 | – | – | –
2 | Sc1nnc(-c2ccccc2OCc2ccccc2)o1 | ≥ 100 | > 100 | > 300 | – | – | –
3 | c1ccc(COc2ccccc2-c2nnc(SCc3ccccc3)o2)cc1 | > 100 | > 100 | > 300 | – | – | –
4 | Nc1nnc(-c2ccccc2OCc2ccccc2)o1 | 63.2 | 85.2 | > 300 | – | – | –
5 | Nc1nnc(-c2ccccc2OCc2ccc(F)cc2)o1 | 3.3 | 2.5 | > 300 | 2.5 | – | –
6 | Nc1nnc(-c2ccccc2OCc2ccc(Cl)cc2)o1 | > 100 | > 100 | > 300 | – | – | –
7 | CCSc1nnc(-c2ccccc2OCc2ccccc2)o1 | > 100 | > 100 | > 300 | – | – | –
8 | CN1C(=O)CN=C(c2ccccc2)c2cc(Cl)ccc21 [DIAZEPAM] | 1.8 | 1.4 | – | – | 2.6 | 2
